Reference: patent US4740504A, “Antihyperlipidemic amine boranes” (United States Borax & Chemical Corp., priority 1987, dated 1988)
Read-outs that look alike come from different tables or passages of the source.

Columns and labels:
HMG CoA reductase = test: Enzymatic studies in vitro: cholesterol synthesis (HMG CoA reductase); type: biochemical; conditions: 200 μM
[1] = target: T1, Cholesterol 7α hydroxylase (Mus musculus, UniProt Q64505); test: Enzyme activity after in vivo dosing: cholesterol 7α hydroxylase; conditions: 16 mg/kg
T1 construct: from tissue; host or cells: liver (inferred; the enzyme is liver-specific)

Cholesterol 7α hydrolase = target: T2, Cholesterol 7α hydrolase (Mus musculus, UniProt Q64505); test: Enzymatic studies in vitro: cholesterol 7α hydrolase; type: biochemical
T2 construct: from tissue; host or cells: liver (inferred; the enzyme is liver-specific)

male CF1 mice = test: Hypolipidemic activity in CF1 mice, intraperitoneal dosing (serum cholesterol and triglyceride); type: in vivo; conditions: for response vs control in vivo at 20 mg/kg: Mus musculus, ip, Table I, 20 mg./kg./day i.p., male CF1 mice; for Serum Cholesterol Day 9 (X ± SD) / Serum Cholesterol Day 16 (X ± SD) / Serum Triglyceride Day 16 (X ± SD) / Serum Triglyceride Day 9 (X ± SD): Table III, CF1 mice, N = 6
Experimental: For determining hypolipidemic activity, the compounds were suspended in an aqueous 1% carboxymethylcellulose solution and tested at 5 or 20 mg./kg./day administered intraperitoneally to male CF1 mice (~25 g.). On days 9 and 16 blood was collected by tail vein bleeding and the serum separated by centrifugation for three minutes. Serum cholesterol levels were determined by a modified Liebermann-Burchard reaction. Serum triglyceride levels were also determined at 16 days using a Fisher-Hycel Triglyceride Test Kit.
The test was repeated at a dosage of 8 mg./kg./day.
(§1) N-n-Octadecyl-N,N-dimethylamine borane was suspended in an aqueous 1% carboxymethylcellulose solution, homogenized, and administered to CF1 male mice (~25 g.) intraperitoneally for 16 days or Sprague Dawley male rats (~350 g.) orally by an intubation needle for 14 days. On days 9 and 14 or 16, blood was obtained by tail vein bleeding and the serum separated by centrifugation for 3 minutes. The serum cholesterol levels were determined by a modification of the Liebermann-Burchard reaction. Serum was also collected on day 14 or 16 and the triglyceride content was determined by a Fisher-Hycel Triglyceride Test Kit.

acetyl CoA synthetase [2] = target: T3, acetyl CoA synthetase (Mus musculus, UniProt Q9QXG4); test: Enzymatic studies in vitro: acetyl CoA synthetase; type: biochemical; conditions: at all concentrations tested
T3 construct: from tissue

[3] = system: liver mitochondrial citrate exchange; test: Enzymatic studies in vitro: liver mitochondrial citrate exchange; type: biochemical; conditions: at all concentrations tested
[4] = target: T4, acyl CoA cholesterol acyl transferase (Mus musculus, UniProt O88908); test: Enzyme activity after in vivo dosing: acyl CoA cholesterol acyl transferase; conditions: 8 mg/kg/day
T4 construct: from tissue
T4 sequence (O88908 1-525): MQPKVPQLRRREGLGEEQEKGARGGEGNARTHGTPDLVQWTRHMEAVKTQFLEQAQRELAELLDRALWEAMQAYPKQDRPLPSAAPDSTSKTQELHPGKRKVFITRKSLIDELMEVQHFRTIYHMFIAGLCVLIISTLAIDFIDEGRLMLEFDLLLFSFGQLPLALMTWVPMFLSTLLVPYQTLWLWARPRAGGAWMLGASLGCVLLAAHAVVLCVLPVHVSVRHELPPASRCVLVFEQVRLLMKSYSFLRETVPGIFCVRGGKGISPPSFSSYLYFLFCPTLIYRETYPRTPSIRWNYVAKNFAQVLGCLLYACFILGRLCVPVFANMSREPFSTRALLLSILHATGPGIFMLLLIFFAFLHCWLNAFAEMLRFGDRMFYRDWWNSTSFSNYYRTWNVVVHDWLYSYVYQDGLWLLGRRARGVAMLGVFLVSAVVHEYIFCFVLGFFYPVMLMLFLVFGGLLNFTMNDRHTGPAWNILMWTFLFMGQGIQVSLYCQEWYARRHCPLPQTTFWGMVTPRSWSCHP

[5] = system: sn-glycerol-3 phosphate acyl transferase; test: Enzymatic studies in vitro: sn-glycerol-3 phosphate acyl transferase; type: biochemical
Sprague Dawley male rats = test: Hypolipidemic activity in Sprague Dawley rats, oral dosing (serum cholesterol and triglyceride); type: in vivo
Experimental: as §1

acetyl CoA synthetase [6] = target: T3, acetyl CoA synthetase; test: Enzyme activity after in vivo dosing: acetyl CoA synthetase; conditions: 16 mg/kg/day
[7] = system: hyperlipidemic induced mice; test: Hypolipidemic activity in diet-induced hyperlipidemic mice; type: in vivo; conditions: 8 mg./kg./day i.p., 12 days
Experimental: The same compound was tested in mice that had been placed on a commercial diet to produce a "hyperlipidemic" state. […] Serum cholesterol and triglyceride levels were measured at that time. A similar lowering of cholesterol and triglyceride levels in the hyperlipidemic-induced mice was observed.

[8] = system: phosphatidate phosphohydrolase; test: Enzymatic studies in vitro: phosphatidate phosphohydrolase; type: biochemical; conditions: 200 μM
fatty acid synthetase = target: T5, fatty acid synthetase (Mus musculus, UniProt P19096); test: Enzymatic studies in vitro: fatty acid synthetase; type: biochemical
T5 construct: from tissue

[9] = system: phosphatidate phosphohydrolase; test: Enzyme activity after in vivo dosing: phosphatidate phosphohydrolase; conditions: 16 mg/kg/day
[10] = system: sn-Glycerol-3-phosphate acyl transferase; test: Enzyme activity after in vivo dosing: sn-glycerol-3-phosphate acyl transferase; conditions: 16 mg/kg/day
Toxicity (LD50) = conditions: in vivo
Actyl CoA carboxylase = test: Enzymatic studies in vitro: acetyl CoA carboxylase; type: biochemical
[11] = system: Hepatic lipoprotein lipase; test: Enzymatic studies in vitro: hepatic lipoprotein lipase induced by heparin; type: biochemical
[12] = CF1 male mice, 8 mg/kg/day I.P.
[13] = Sprague Dawley rats, oral administration at 20 mg/kg/day
[14] = Table III, 20 mg/kg/day orally, Sprague Dawley rats

T3 sequence (Q9QXG4 whole entry): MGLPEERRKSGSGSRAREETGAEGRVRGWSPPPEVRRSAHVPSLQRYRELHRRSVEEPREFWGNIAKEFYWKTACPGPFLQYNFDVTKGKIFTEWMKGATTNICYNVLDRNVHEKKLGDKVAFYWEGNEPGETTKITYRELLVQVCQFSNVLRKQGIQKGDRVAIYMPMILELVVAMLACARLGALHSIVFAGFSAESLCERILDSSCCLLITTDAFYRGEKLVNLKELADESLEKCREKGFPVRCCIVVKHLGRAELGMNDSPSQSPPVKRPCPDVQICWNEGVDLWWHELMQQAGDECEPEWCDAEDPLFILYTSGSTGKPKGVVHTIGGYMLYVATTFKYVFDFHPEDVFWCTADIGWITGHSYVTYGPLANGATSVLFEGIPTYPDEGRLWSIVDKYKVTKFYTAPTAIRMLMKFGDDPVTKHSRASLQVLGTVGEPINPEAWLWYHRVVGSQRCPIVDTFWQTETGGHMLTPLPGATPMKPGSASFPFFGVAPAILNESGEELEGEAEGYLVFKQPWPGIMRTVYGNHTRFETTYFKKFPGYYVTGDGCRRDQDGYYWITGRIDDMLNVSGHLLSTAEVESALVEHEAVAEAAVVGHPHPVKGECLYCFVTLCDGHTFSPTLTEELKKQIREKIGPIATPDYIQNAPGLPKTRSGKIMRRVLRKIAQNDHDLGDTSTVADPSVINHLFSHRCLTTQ
T1 sequence (Q64505 whole entry): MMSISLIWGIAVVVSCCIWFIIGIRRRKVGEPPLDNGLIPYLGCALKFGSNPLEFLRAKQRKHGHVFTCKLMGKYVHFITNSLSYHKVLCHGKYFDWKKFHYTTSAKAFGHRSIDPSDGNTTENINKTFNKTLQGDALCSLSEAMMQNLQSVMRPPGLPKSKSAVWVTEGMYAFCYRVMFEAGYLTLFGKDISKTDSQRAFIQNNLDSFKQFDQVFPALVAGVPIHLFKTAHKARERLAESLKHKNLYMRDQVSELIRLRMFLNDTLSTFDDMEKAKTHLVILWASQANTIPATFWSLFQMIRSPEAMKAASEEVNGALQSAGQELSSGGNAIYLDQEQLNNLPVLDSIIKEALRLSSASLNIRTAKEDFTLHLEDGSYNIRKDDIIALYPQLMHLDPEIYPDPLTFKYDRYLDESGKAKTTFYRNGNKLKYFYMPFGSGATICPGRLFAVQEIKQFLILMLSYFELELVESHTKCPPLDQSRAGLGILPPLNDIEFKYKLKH
T2 sequence (Q64505 whole entry): as above
T5 sequence (P19096 whole entry): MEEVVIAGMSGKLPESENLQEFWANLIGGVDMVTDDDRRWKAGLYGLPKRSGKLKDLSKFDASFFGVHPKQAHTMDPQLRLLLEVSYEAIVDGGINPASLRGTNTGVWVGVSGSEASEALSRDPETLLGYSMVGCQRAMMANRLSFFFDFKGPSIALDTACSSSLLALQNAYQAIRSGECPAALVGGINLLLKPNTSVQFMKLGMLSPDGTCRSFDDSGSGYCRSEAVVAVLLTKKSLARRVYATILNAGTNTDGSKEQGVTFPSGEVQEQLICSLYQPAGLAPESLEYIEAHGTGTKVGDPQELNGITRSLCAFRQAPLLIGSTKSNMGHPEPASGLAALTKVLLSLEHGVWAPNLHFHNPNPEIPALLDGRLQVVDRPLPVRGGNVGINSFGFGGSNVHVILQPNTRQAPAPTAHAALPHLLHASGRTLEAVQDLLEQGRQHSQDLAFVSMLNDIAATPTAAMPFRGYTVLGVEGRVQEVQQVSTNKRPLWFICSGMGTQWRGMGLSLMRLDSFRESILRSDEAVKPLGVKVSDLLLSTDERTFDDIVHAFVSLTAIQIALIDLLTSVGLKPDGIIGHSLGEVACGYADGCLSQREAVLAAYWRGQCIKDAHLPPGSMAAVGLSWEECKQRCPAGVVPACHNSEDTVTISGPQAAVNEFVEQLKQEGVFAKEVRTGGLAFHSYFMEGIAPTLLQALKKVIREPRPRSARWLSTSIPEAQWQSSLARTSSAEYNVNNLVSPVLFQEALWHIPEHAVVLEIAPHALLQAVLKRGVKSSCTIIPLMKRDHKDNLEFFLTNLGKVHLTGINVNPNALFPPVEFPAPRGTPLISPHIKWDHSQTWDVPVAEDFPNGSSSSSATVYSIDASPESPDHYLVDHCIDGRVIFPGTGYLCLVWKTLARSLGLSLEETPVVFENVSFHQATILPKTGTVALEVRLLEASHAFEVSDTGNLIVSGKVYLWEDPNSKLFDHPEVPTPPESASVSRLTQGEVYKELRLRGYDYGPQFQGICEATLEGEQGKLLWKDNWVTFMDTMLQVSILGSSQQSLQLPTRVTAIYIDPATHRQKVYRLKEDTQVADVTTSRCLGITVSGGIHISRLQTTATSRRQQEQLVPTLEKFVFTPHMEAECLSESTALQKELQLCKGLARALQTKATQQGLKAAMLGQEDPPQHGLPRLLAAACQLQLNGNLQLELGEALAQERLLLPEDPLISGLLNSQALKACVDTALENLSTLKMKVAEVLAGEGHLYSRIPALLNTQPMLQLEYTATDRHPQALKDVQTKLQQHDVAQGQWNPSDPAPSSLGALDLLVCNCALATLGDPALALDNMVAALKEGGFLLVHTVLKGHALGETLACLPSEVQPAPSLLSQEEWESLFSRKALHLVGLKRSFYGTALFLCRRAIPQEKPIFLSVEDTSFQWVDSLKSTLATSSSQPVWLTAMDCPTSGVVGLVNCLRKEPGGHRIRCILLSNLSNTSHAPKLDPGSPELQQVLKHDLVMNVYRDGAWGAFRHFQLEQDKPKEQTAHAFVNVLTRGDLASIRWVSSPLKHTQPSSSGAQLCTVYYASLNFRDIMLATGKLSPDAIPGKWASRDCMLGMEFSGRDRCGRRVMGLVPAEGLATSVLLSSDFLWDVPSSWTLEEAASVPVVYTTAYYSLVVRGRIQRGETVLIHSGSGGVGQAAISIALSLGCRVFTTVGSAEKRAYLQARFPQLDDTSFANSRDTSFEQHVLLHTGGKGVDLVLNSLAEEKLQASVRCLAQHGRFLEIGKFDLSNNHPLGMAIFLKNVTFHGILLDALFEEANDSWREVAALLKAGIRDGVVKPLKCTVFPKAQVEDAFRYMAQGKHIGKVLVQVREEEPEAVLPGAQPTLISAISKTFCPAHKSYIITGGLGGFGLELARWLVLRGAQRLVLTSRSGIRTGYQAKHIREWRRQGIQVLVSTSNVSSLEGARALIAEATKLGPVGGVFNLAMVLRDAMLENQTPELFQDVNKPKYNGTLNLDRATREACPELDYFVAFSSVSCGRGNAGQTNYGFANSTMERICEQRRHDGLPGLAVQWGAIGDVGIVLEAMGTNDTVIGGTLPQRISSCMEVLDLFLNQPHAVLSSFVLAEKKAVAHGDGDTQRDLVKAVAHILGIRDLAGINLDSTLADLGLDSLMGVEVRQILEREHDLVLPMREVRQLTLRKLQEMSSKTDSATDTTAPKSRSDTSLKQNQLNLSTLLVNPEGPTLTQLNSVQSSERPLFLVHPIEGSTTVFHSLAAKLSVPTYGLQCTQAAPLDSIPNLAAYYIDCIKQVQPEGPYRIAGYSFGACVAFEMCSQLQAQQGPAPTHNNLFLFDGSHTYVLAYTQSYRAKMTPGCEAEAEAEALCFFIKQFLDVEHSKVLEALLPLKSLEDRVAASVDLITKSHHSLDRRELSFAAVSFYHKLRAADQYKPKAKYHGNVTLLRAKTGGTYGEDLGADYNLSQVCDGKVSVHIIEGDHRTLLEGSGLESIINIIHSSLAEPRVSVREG

SMILES: [BH3-][N+](C)(C)CCCCCCCCCCCCCCCCCC [I, N-n-Octadecyl-N,N-Dimethylamine Borane]
- reduction of cholesterol synthesis (HMG CoA reductase) (HMG CoA reductase): 38%
- reduction of cholesterol 7α hydroxylase activity [1]: 35%
- effect on cholesterol 7α hydrolase activity (Cholesterol 7α hydrolase): unaffected
- reduction of serum cholesterol levels (male CF1 mice; [12]): 41%
- reduction of serum triglyceride levels (male CF1 mice; [12]): 59%
- response vs control in vivo at 20 mg/kg (male CF1 mice; 216 h, day 9, read-out: Serum Cholesterol Day 9): 82%
- response vs control in vivo at 20 mg/kg (male CF1 mice; 384 h, day 16, read-out: Serum Cholesterol Day 16): 79%
- response vs control in vivo at 20 mg/kg (male CF1 mice; 384 h, day 16, read-out: Serum Triglyceride Day 16): 77%
- Serum Cholesterol Day 9 (X ± SD) (male CF1 mice; 2 mg/kg/day i.p.): 71 ± 6% of Control
- Serum Cholesterol Day 16 (X ± SD) (male CF1 mice; 2 mg/kg/day i.p.): 61 ± 7% of Control
- Serum Triglyceride Day 16 (X ± SD) (male CF1 mice; 2 mg/kg/day i.p.): 45 ± 4% of Control
- Serum Cholesterol Day 9 (X ± SD) (male CF1 mice; 4 mg/kg/day i.p.): 69 ± 5% of Control
- Serum Cholesterol Day 16 (X ± SD) (male CF1 mice; 4 mg/kg/day i.p.): 59 ± 5% of Control
- Serum Triglyceride Day 16 (X ± SD) (male CF1 mice; 4 mg/kg/day i.p.): 49 ± 5% of Control
- Serum Cholesterol Day 9 (X ± SD) (male CF1 mice; 8 mg/kg/day i.p.): 79 ± 7% of Control
- Serum Cholesterol Day 16 (X ± SD) (male CF1 mice; 8 mg/kg/day i.p.): 59 ± 4% of Control
- Serum Triglyceride Day 9 (X ± SD) (male CF1 mice; 8 mg/kg/day i.p.): 87 ± 7% of Control
- Serum Triglyceride Day 16 (X ± SD) (male CF1 mice; 8 mg/kg/day i.p.): 41 ± 3% of Control
- Serum Cholesterol Day 9 (X ± SD) (male CF1 mice; 12 mg/kg/day i.p.): 62 ± 6% of Control
- Serum Cholesterol Day 16 (X ± SD) (male CF1 mice; 12 mg/kg/day i.p.): 61 ± 5% of Control
- Serum Triglyceride Day 9 (X ± SD) (male CF1 mice; 12 mg/kg/day i.p.): 58 ± 6% of Control
- Serum Triglyceride Day 16 (X ± SD) (male CF1 mice; 12 mg/kg/day i.p.): 56 ± 7% of Control
- Serum Cholesterol Day 9 (X ± SD) (male CF1 mice; 16 mg/kg/day i.p.): 60 ± 5% of Control
- Serum Cholesterol Day 16 (X ± SD) (male CF1 mice; 16 mg/kg/day i.p.): 61 ± 6% of Control
- Serum Triglyceride Day 9 (X ± SD) (male CF1 mice; 16 mg/kg/day i.p.): 73 ± 8% of Control
- Serum Triglyceride Day 16 (X ± SD) (male CF1 mice; 16 mg/kg/day i.p.): 63 ± 8% of Control
- Serum Cholesterol Day 9 (X ± SD) (male CF1 mice; 20 mg/kg/day i.p.): 82 ± 7% of Control
- Serum Cholesterol Day 16 (X ± SD) (male CF1 mice; 20 mg/kg/day i.p.): 79 ± 7% of Control
- Serum Triglyceride Day 16 (X ± SD) (male CF1 mice; 20 mg/kg/day i.p.): 77 ± 7% of Control
- Serum Cholesterol Day 9 (X ± SD) (male CF1 mice; 40 mg/kg/day i.p.): 83 ± 6% of Control
- Serum Cholesterol Day 16 (X ± SD) (male CF1 mice; 40 mg/kg/day i.p.): 79 ± 8% of Control
- Serum Triglyceride Day 16 (X ± SD) (male CF1 mice; 40 mg/kg/day i.p.): 93 ± 6% of Control
- Serum Cholesterol Day 9 (X ± SD) (male CF1 mice; 60 mg/kg/day i.p.): 81 ± 6% of Control
- Serum Cholesterol Day 16 (X ± SD) (male CF1 mice; 60 mg/kg/day i.p.): 82 ± 6% of Control
- Serum Triglyceride Day 16 (X ± SD) (male CF1 mice; 60 mg/kg/day i.p.): 113 ± 4% of Control
- optimum dosage (male CF1 mice; in mice): about 8 mg./kg./day
- reduction of acetyl CoA synthetase activity (acetyl CoA synthetase [2]): more than 50%
- reduction of liver mitochondrial citrate exchange [3]: more than 50%
- lowering of acyl CoA cholesterol acyl transferase activity [4]: 52%
- effect on sn-glycerol-3 phosphate acyl transferase activity [5]: unaffected
- lowering of serum triglyceride levels (Sprague Dawley male rats; [13]): 35%
- reduction of serum cholesterol levels (Sprague Dawley male rats; [13]): 54%
- Serum Cholesterol Day 9 (X ± SD) (Sprague Dawley male rats; [14]): 82 ± 8% of Control
- Serum Cholesterol Day 14 (X ± SD) (Sprague Dawley male rats; [14]): 46 ± 5% of Control
- Serum Triglyceride Day 9 (X ± SD) (Sprague Dawley male rats; [14]): 82 ± 7% of Control
- Serum Triglyceride Day 14 (X ± SD) (Sprague Dawley male rats; [14]): 65 ± 6% of Control
- optimum dosage (Sprague Dawley male rats; in rats): about 20 mg./kg.
- reduction of acetyl CoA synthetase (acetyl CoA synthetase [6]): 32%
- serum cholesterol level after treatment ([7]; hyperlipidemic induced mice (elevated to 375 mg %, control 128 mg %)): 180 mg %
- reduction of serum cholesterol level ([7]; hyperlipidemic induced mice): 52%
- serum triglyceride level after treatment ([7]; hyperlipidemic mice (elevated to 367 mg/dl, normal 137 mg/dl)): 187 mg %
- reduction of serum triglyceride level ([7]; hyperlipidemic mice): 49%
- reduction in phosphatidate phosphohydrolase activity [8]: 67%
- effect on fatty acid synthetase activity (fatty acid synthetase): unaffected
- reduction of phosphatidate phosphohydrolase activity [9]: 40%
- reduction of sn-glycerol-3-phosphate acyl transferase activity [10]: 33%
- LD50 (Toxicity (LD50)): > 500 mg/kg
- effect on Actyl CoA carboxylase activity (Actyl CoA carboxylase): unaffected
- reduction of hepatic lipoprotein lipase activity ([11]; 100 μM): 23%
- reduction of hepatic lipoprotein lipase activity ([11]; 200 μM): 23%
